Experimental data as given in publication PMC11345766, “Computational Design of Pore-Forming Peptides with Potent Antimicrobial and Anticancer Activities” (Journal of Medicinal Chemistry, 2024).
Ends that are not written are not given here.

What was measured:
[1] = system: A. baumannii (NCTC 13301); assay: Murine excisional dorsal wound infection model; format: in vivo, mouse; conditions: for Survival: day 3 postinfection
Method: To investigate wound-healing applications, two peptides (LP1 and LP18) were tested in a murine wound infection model.[57] Immunosuppressed mice were infected with 5 × 10^4 cells per mL of A. baumannii (NCTC 13301) at the excised dorsal wound. The peptides at 1000 times the MICs (∼10 mg/kg) were applied directly to the wound by puncturing the dressing with a syringe once a day for 7 days. After removal of the dressing, necrosis of the epidermal tissue at the wound edges and wound expansion were observed. These conditions were reduced in the LP1-treated group, followed by the LP18-treated, PBS-treated, and untreated groups (Figure S6a,b). Contractile wound healing appeared to be higher in the LP1-treated group compared to the other groups. After 20 days, LP1-treated wounds were either completely closed or had less than 10 mm^2 of overlying serocellular crust, whereas the other wounds had larger and more inflamed serocellular crusts.
Eight-to-ten-week-old female Balb/c mice (obtained from Envigo, Netherlands) were subjected to immunosuppression induction by two intraperitoneal doses of 150 and 100 mg/kg cyclophosphamide on days −4 and −1, respectively, before wounding. On day 0 of wounding, mice were anesthetized with isoflurane and the dorsal region was shaved and scrubbed with iodine solution. A full-thickness skin defect was created over the thoracic spine using a 6 mm disposable skin biopsy punch (KAI Industries Co., Ltd., Japan). Infection was established by applying 25 μL of A. baumannii NCTC 13301 (5 × 10^4 CFU/mL) applied directly to the wound and allowed to absorb for 2 min. Wound was covered with a transparent sterile dressing (Tegaderm, Deutschland GmbH, Germany) and secured with tissue adhesive (Surgibond, SMI AG, Belgium). Afterward, mice received an intramuscular injection of buprenorphine (0.05 mg/kg). […] From 10^–3, 10^–5, and 10^–7 dilutions, 100 μL of the sample was collected three times, incubated on MacConkey agar plates (Trios, Czech Republic), and analyzed for viable cell counts. […]

[2] = system: MOLM-13, MEC-1 and SU-DHL-4 cancer cell lines; conditions: 24 h
Method: Anticancer activity of peptides against acute myeloid leukemia MOLM-13, chronic lymphocytic leukemia MEC-1, and diffuse large B-cell lymphoma SU-DHL-4 cell lines was tested using a WST cell viability assay. Cells were cultured in 75 cm^2 culture flasks at 37 °C in 5% CO2 according to the DSMZ recommendations before the start of the experiment. Then, the cells were seeded into 96-well plates in quadruplicate at 2.5 × 10^4 cells/well for SU-DHL-4, and 5 × 10^4 cells/well for MEC-1 and MOLM-13. Cells were treated with either peptides or PBS alone (negative control) for 24–72 h at 37 °C in 5% CO2. After incubation, cell viability was measured by WST-1 (Roche) according to the manufacturer’s instructions using Tecan microplate reader Infinite M200 PRO Plex and expressed as percentage compared to control.

[3] = system: HL-60, K-562, MCF-7 and HCT-116 cells; assay: Viability by flow cytometry DiOC6/7AAD staining, effect of pH and media; format: cell-based, human; conditions: 10 μM, 1 h; RPMI, DMEM, PBS at pH 8, 7, 6 and ∼7.6
Method: To investigate the effect of pH and media on anticancer activity, we further tested the peptides against four cell lines, HL-60, K-562, and MCF-7, and the colon cancer cells HCT-116, cultured in three different media, namely, RPMI, DMEM, and PBS, each adjusted to three different pH values 8, 7, and 6, and additionally one case without pH adjustment (∼7.6) (Figure 6c). To avoid pH changes due to the natural buffering of the CO2-bicarbonate system used in cell culture, the peptides were tested at a concentration of 10 μM for only 1 h, as the cell lysis effect was already apparent within 30 min of exposure (Figure S9d).
Effects of pH and culture medium on the anticancer activity of peptides against acute myeloid leukemia HL-60, chronic myeloid leukemia K-562, breast adenocarcinoma MCF-7, and colon cancer cells HCT-116 cultured in three different media RPMI (#21875034, Gibco), DMEM (#LM-D1110/500, Biosera), and PBS adjusted to three different pH values 8, 7, and 6, and a medium without pH adjustment (∼7.6), were tested using flow cytometry DiOC6/7AAD (3,3-dihexyloxacarbocyanine iodide/7-amino-actinomycin D) staining assay, as described previously.[102] Media pH was adjusted twice, i.e., 1 day before the experiment and immediately before the experiment. Medium was supplemented with 10% heat-inactivated FBS, glutamine, sodium pyruvate, and antibiotics (100 U/mL penicillin and 100 μg/mL streptomycin). […] To determine cell viability, cells were incubated with DiOC6 (Thermo Fisher Scientific) and 7AAD (Thermo Fisher Scientific) for 15 min at 37 °C and cell viability was measured using a BriCyte E6 flow cytometer (Mindray); viable cells were considered as DiOC6-positive and 7AAD-negative.
The effect of pH on peptide activity in cancer cells was evaluated by the multiway ANOVA followed by Tukey post hoc test. Regarding the comparison of the effect of the medium, we analyzed the data from Figure 6c by comparing RPMI medium and DMEM of the same pH, and statistical significance was assessed using the multiway ANOVA followed by Tukey post hoc test. […]

Substance	Survival [1]	Overlying serocellular crust of wound ([1]; topical, 1000 times the MIC (∼10 mg/kg) once a day for 7 days, after 20 days)	IC50 [2]	Activity against cancer cells (cell viability) as a function of pH and medium [3]
KKKKLKKILKKLFQFINQLDNQLQDIKKKK-NH2 [LP18]	100%			
KKKKLKKILKKLFQFINQLDNQLQDIKQNK-NH2 [LP1]	100%	less than 10 mm^2	< 10 µM	pH-dependent activity
H-HHHHLKKILKKLFQFINQLDNQLQDIHHHH-OH [LP40]			1 to 20 µM	pH-dependent activity
